Experimental data published in patent publication EP4745135A1 (Gluetacs Therapeutics (Shanghai) Co., Ltd., priority 2023, dated 2025).

Key:
IKZF1 = target: T1, IKZF1 (Homo sapiens, UniProt Q13422+Q96SW2); test: Western blot, degradation of substrate protein in hPBMCs; assay type: cell-based
T1 construct: effects of the compounds of the present disclosure on the expression of target proteins in cells; endogenous in cells; host or cells: human PBMCs (Milecell Biotechnologies)

IKZF3 = target: T2, IKZF3 (Homo sapiens, UniProt Q96SW2+Q9UKT9); test: as above; assay type: cell-based
T2 construct: effects of the compounds of the present disclosure on the expression of target proteins in cells; endogenous in cells; host or cells: human PBMCs (Milecell Biotechnologies)

IKZF2 = target: T3, IKZF2 (Homo sapiens, UniProt Q96SW2+Q9UKS7); test: as above; assay type: cell-based
T3 construct: effects of the compounds of the present disclosure on the expression of target proteins in cells; endogenous in cells; host or cells: human PBMCs (Milecell Biotechnologies)

WEE1 = target: T4, WEE1 (Homo sapiens, UniProt P30291+Q96SW2); test: as above; assay type: cell-based
T4 construct: effects of the compounds of the present disclosure on the expression of target proteins in cells; endogenous in cells; host or cells: human PBMCs (Milecell Biotechnologies)

CK1α = target: T5, CK1α (Homo sapiens, UniProt P48729+Q96SW2); test: as above; assay type: cell-based
T5 construct: effects of the compounds of the present disclosure on the expression of target proteins in cells; endogenous in cells; host or cells: human PBMCs (Milecell Biotechnologies)

[1] = target: T6, human Cereblon WT GST-tagged protein (Homo sapiens, UniProt Q96SW2); test: CRBN-binding affinity, HTRF (CEREBLON BINDING kit); conditions: for inhibition at 0.5 µM: read-out: Inhibition Rate at 0.5 µM (%); for inhibition at 2 µM: read-out: Inhibition Rate at 2 µM (%)
T6 construct: purchased CISBIO 64BDCRBNPEH

GSPT1 = test: Western blot, degradation of substrate protein in hPBMCs; assay type: cell-based, Human
[2] = Western blot, 24 hours of compound treatment, compounds tested at 50 nM and 500 nM (concentration for the table not stated)
[3] = 24 hours treatment, compounds at 50 nM and 500 nM (concentration behind the class not stated)

T3 sequence (Q9UKS7 whole entry): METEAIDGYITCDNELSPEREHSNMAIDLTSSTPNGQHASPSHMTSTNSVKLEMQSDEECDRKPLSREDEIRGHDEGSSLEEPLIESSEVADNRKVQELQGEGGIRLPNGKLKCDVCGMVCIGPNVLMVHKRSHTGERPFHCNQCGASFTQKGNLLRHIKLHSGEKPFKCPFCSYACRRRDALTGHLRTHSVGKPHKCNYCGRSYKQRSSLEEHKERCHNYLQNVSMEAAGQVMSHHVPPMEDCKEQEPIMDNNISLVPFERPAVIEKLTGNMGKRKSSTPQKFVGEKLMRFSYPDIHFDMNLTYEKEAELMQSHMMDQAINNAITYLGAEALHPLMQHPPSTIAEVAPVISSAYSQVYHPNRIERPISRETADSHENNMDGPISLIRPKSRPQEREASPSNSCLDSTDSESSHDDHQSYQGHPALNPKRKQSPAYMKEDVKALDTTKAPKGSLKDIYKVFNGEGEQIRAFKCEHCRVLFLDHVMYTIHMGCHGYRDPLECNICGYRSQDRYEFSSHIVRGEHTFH
T3 sequence (Q96SW2 whole entry): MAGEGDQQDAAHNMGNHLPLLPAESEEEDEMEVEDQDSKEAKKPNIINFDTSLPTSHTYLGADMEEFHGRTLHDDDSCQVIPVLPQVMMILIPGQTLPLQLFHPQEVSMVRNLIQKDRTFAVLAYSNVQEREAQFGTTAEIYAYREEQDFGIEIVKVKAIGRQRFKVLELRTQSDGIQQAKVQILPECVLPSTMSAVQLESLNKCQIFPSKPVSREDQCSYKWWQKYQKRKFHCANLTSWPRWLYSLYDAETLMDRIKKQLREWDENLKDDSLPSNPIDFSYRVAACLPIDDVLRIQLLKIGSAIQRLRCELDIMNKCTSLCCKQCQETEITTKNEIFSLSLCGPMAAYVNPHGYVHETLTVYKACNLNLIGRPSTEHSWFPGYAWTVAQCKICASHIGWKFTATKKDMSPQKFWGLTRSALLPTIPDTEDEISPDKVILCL
T3 sequence (Q16531 whole entry partner): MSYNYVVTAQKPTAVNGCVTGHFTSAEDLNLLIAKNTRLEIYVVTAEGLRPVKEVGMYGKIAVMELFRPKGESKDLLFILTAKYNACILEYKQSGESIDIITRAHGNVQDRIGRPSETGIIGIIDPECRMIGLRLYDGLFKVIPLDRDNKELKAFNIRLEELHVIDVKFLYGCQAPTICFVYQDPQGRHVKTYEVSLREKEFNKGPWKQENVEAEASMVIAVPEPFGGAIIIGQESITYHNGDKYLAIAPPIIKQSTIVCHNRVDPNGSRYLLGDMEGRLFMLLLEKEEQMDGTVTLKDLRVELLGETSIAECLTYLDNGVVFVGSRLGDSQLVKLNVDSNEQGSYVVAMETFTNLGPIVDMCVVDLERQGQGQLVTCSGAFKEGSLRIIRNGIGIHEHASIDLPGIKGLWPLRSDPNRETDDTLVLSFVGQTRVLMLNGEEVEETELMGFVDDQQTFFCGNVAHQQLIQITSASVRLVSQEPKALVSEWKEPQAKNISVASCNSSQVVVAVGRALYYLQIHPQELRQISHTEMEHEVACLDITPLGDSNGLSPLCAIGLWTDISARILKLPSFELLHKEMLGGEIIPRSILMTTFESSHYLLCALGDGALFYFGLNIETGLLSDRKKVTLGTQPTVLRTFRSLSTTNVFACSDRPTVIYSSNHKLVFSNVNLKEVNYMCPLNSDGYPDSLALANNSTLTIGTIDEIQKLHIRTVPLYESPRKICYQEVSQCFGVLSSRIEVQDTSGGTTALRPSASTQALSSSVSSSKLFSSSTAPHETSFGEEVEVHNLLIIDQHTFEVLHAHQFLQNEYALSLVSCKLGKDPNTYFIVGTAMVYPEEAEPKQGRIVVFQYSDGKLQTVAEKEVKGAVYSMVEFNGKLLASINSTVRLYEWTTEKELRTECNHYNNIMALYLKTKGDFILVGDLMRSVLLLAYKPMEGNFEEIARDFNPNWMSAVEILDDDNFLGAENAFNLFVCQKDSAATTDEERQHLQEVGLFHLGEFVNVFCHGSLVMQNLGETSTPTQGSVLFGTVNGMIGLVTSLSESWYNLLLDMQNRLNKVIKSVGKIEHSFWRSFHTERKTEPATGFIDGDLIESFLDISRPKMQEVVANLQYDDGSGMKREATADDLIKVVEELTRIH
T4 sequence (P30291 whole entry): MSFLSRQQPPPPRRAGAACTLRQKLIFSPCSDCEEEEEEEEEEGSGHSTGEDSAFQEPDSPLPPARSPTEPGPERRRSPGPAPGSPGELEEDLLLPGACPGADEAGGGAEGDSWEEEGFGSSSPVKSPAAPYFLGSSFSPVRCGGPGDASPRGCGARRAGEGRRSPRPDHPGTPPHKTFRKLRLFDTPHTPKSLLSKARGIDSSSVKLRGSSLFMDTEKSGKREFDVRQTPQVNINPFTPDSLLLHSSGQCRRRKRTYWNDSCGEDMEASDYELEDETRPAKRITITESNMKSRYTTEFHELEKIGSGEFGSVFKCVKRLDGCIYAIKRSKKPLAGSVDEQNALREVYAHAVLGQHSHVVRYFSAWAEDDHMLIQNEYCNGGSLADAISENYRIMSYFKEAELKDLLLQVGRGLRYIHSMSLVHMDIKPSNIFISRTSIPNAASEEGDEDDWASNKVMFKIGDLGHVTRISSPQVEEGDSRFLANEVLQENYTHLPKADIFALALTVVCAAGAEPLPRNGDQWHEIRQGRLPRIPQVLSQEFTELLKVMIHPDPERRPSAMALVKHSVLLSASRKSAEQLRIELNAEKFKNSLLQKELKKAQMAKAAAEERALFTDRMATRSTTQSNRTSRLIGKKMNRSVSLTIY
T4 sequence (Q96SW2 whole entry): as the sequence (Q96SW2 whole entry) above
T4 sequence (Q16531 whole entry partner): as the sequence (Q16531 whole entry partner) above
T6 sequence (Q96SW2 whole entry): as the sequence (Q96SW2 whole entry) above
T1 sequence (Q13422 whole entry): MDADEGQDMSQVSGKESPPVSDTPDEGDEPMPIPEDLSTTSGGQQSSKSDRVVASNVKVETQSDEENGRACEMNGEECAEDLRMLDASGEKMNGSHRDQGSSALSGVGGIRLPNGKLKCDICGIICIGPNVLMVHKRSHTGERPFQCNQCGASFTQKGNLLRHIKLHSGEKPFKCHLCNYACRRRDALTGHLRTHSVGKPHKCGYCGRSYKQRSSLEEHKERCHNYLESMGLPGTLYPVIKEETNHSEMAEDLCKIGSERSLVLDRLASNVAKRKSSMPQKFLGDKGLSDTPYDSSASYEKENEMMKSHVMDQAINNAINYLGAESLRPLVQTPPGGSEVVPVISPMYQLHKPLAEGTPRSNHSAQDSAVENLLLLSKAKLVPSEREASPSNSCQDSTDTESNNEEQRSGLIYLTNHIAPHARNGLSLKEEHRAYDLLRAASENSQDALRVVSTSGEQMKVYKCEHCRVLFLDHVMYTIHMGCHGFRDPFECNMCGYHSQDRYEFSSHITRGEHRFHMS
T1 sequence (Q96SW2 whole entry): as the sequence (Q96SW2 whole entry) above
T1 sequence (Q16531 whole entry partner): as the sequence (Q16531 whole entry partner) above
T5 sequence (P48729 whole entry): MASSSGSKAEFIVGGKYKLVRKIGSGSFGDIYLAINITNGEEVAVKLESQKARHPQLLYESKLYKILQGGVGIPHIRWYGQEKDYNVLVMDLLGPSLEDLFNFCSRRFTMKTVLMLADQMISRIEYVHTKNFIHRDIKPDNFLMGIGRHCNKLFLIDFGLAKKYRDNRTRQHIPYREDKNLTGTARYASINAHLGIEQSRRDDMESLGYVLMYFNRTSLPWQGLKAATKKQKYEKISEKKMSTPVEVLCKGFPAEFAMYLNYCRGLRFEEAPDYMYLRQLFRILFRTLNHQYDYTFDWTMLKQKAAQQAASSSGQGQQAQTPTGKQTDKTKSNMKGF
T5 sequence (Q96SW2 whole entry): as the sequence (Q96SW2 whole entry) above
T5 sequence (Q16531 whole entry partner): as the sequence (Q16531 whole entry partner) above
T2 sequence (Q9UKT9 whole entry): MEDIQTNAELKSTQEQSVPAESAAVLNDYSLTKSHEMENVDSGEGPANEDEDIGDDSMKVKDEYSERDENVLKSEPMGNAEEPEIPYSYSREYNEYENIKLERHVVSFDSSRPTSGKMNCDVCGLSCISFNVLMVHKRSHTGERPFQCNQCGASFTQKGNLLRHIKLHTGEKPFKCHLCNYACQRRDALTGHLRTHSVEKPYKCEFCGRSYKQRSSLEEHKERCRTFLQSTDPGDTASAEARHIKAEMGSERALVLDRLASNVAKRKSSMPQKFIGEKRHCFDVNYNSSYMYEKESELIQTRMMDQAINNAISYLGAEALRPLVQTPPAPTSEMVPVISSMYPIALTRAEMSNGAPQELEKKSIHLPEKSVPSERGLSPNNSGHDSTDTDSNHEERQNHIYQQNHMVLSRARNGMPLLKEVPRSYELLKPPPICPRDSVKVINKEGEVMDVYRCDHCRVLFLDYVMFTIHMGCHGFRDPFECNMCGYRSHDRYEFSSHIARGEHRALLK
T2 sequence (Q96SW2 whole entry): as the sequence (Q96SW2 whole entry) above
T2 sequence (Q16531 whole entry partner): as the sequence (Q16531 whole entry partner) above

inhibition at 0.5 µM [1] [%] | inhibition at 2 µM [1] [%] | Compound | IKZF 1 substrate protein remaining % (IKZF1; [2]) | IKZF3 substrate protein remaining % (IKZF3; [2]) | IKZF2 substrate protein remaining % (IKZF2; [2]) | Wee1 substrate protein remaining % (WEE1; [2]) | CK1α substrate protein remaining % (CK1α; [2]) | GSPT1 substrate protein remaining % (GSPT1; [2]) | IKZF 1 substrate protein remaining % (IKZF1; [3]) | IKZF3 substrate protein remaining % (IKZF3; [3]) | IKZF2 substrate protein remaining % (IKZF2; [3]) | Wee1 substrate protein remaining % (WEE1; [3]) | CK1α substrate protein remaining % (CK1α; [3]) | GSPT1 substrate protein remaining % (GSPT1; [3])
40 to 53 | 53 to 60 | O=C1CCC(N2Cc3c(CN4CCN(c5ccccc5Cl)CC4)cccc3C2=S)C(=O)N1 (stereo not shown) [GT-08265, 3-(4-((4-(2-chlorophenyl)piperazin-1-yl)methyl)-1-thioxoisoindolin-2-yl)piperidine-2,6-dione] | B (80%< substrate protein remaining %≤ 100%) | B (80%< substrate protein remaining %≤ 100%) | B (80%< substrate protein remaining %≤ 100%) | A (0% ≤ substrate protein remaining % ≤ 80%) | B (80%< substrate protein remaining %≤ 100%) | A (0% ≤ substrate protein remaining % ≤ 80%) |  |  |  |  |  | 
30 to 40 | 53 to 60 | O=C1CCC(N2Cc3c(CN4CCC(c5cccc(Cl)c5Cl)CC4)cccc3C2=S)C(=O)N1 (stereo not shown) [GT-08269, 3-(4-((4-(2,3-dichlorophenyl)piperidin-1-yl)methyl)-1-thioxoisoindolin-2-yl)piperidine-2,6-dione] | B (80%< substrate protein remaining %≤ 100%) | B (80%< substrate protein remaining %≤ 100%) | B (80%< substrate protein remaining %≤ 100%) | A (0% ≤ substrate protein remaining % ≤ 80%) | B (80%< substrate protein remaining %≤ 100%) | A (0% ≤ substrate protein remaining % ≤ 80%) |  |  |  |  |  | 
60 to 80 | 80 to 100 | Cc1cc(N2CCN(Cc3cccc4c3CN(C3CCC(=O)NC3=O)C4=S)CC2)cs1 (stereo not shown) [GT-08298, 3-(4-((4-(5-methylthiophen-3-yl)piperazin-1-yl)methyl)-1-thioxoisoindolin-2-yl)piperidine-2,6-dione] | B (80%< substrate protein remaining %≤ 100%) | B (80%< substrate protein remaining %≤ 100%) | B (80%< substrate protein remaining %≤ 100%) | A (0% ≤ substrate protein remaining % ≤ 80%) | B (80%< substrate protein remaining %≤ 100%) | B (80%< substrate protein remaining %≤ 100%) |  |  |  |  |  | 
30 to 40 | 80 to 100 | CC1(C)CCC(CN2CC3CCC2CN3Cc2cccc3c2CN(C2CCC(=O)NC2=O)C3=S)=C(c2ccc(Cl)cc2)C1 (stereo not shown) [GT-08302, 3-(4-((5-((4'-chloro-5,5-dimethyl-3,4,5,6-tetrahydro-[1,1'-biphenyl]-2-yl)methyl)-2,5-diazabicyclo[2.2.2]octan-2-yl)methyl)-1-thioxoisoindolin-2-yl)piperidine-2,6-dione] | B (80%< substrate protein remaining %≤ 100%) | B (80%< substrate protein remaining %≤ 100%) | B (80%< substrate protein remaining %≤ 100%) | A (0% ≤ substrate protein remaining % ≤ 80%) | B (80%< substrate protein remaining %≤ 100%) | B (80%< substrate protein remaining %≤ 100%) |  |  |  |  |  | 
60 to 80 | 60 to 80 | COc1cccc(N2CCN(Cc3cccc4c3CN(C3CCC(=O)NC3=O)C4=S)CC2)c1 (stereo not shown) [GT-08304, 3-(4-((4-(3-methoxyphenyl)piperazin-1-yl)methyl)-1-thioxoisoindolin-2-yl)piperidine-2,6-dione] | A (0% ≤ substrate protein remaining % ≤ 80%) | B (80%< substrate protein remaining %≤ 100%) | B (80%< substrate protein remaining %≤ 100%) | A (0% ≤ substrate protein remaining % ≤ 80%) | B (80%< substrate protein remaining %≤ 100%) | B (80%< substrate protein remaining %≤ 100%) |  |  |  |  |  | 
60 to 80 | 80 to 100 | Cc1ccc(N2CCN(Cc3cccc4c3CN(C3CCC(=O)NC3=O)C4=S)CC2)s1 (stereo not shown) [GT-08305, 3-(4-((4-(5-methylthiophen-2-yl)piperazin-1-yl)methyl)-1-thioxoisoindolin-2-yl)piperidine-2,6-dione] |  |  |  |  |  |  | B (80%< substrate protein remaining %≤ 100%) | B (80%< substrate protein remaining %≤ 100%) | A (0% ≤ substrate protein remaining % ≤ 80%) | B (80%< substrate protein remaining %≤ 100%) | B (80%< substrate protein remaining %≤ 100%) | B (80%< substrate protein remaining %≤ 100%)
53 to 60 | 80 to 100 | Cc1cscc1N1CCN(Cc2cccc3c2CN(C2CCC(=O)NC2=O)C3=S)CC1 (stereo not shown) [GT-08306, 3-(4-((4-(4-methylthiophen-3-yl)piperazin-1-yl)methyl)-1-thioxoisoindolin-2-yl)piperidine-2,6-dione] |  |  |  |  |  |  | B (80%< substrate protein remaining %≤ 100%) | B (80%< substrate protein remaining %≤ 100%) | B (80%< substrate protein remaining %≤ 100%) | A (0% ≤ substrate protein remaining % ≤ 80%) | B (80%< substrate protein remaining %≤ 100%) | B (80%< substrate protein remaining %≤ 100%)

Compound | inhibition at 0.5 µM [1] [%] | inhibition at 2 µM [1] [%] | IKZF 1 substrate protein remaining % (IKZF1; [2]) | IKZF3 substrate protein remaining % (IKZF3; [2]) | IKZF2 substrate protein remaining % (IKZF2; [2]) | Wee1 substrate protein remaining % (WEE1; [2]) | CK1α substrate protein remaining % (CK1α; [2]) | GSPT1 substrate protein remaining % (GSPT1; [2]) | IKZF 1 substrate protein remaining % (IKZF1; [3]) | IKZF3 substrate protein remaining % (IKZF3; [3]) | IKZF2 substrate protein remaining % (IKZF2; [3]) | Wee1 substrate protein remaining % (WEE1; [3]) | CK1α substrate protein remaining % (CK1α; [3]) | GSPT1 substrate protein remaining % (GSPT1; [3])
CC1(C)CCC(CN2C3CC2CN(Cc2cccc4c2CN(C2CCC(=O)NC2=O)C4=S)C3)=C(c2ccc(Cl)cc2)C1 (stereo not shown) [GT-08271, 3-(4-((6-((4'-chloro-5,5-dimethyl-3,4,5,6-tetrahydro-[1,1'-biphenyl]-2-yl)methyl)-3,6-diazabicyclo[3.1.1]heptan-3-yl)methyl)-1-thioxoisoindolin-2-yl)piperidine-2,6-dione] | 30 to 40 | 60 to 80 | B (80%< substrate protein remaining %≤ 100%) | B (80%< substrate protein remaining %≤ 100%) | B (80%< substrate protein remaining %≤ 100%) | A (0% ≤ substrate protein remaining % ≤ 80%) | A (0% ≤ substrate protein remaining % ≤ 80%) | A (0% ≤ substrate protein remaining % ≤ 80%) |  |  |  |  |  | 
CC1(C)CCC(CN2C3CCC2CN(Cc2cccc4c2CN(C2CCC(=O)NC2=O)C4=S)C3)=C(c2ccc(Cl)cc2)C1 (stereo not shown) [GT-08291, 3-(4-((8-((4'-chloro-5,5-dimethyl-3,4,5,6-tetrahydro-[1,1-biphenyl]-2-yl)methyl)-3,8-diazabicyclo[3.2.1]octan-3-yl)methyl)-1-thioxoisoindolin-2-yl)piperidine-2,6-dione] | 20 to 30 | 60 to 80 | B (80%< substrate protein remaining %≤ 100%) | B (80%< substrate protein remaining %≤ 100%) | B (80%< substrate protein remaining %≤ 100%) | A (0% ≤ substrate protein remaining % ≤ 80%) | A (0% ≤ substrate protein remaining % ≤ 80%) | A (0% ≤ substrate protein remaining % ≤ 80%) |  |  |  |  |  | 
O=C1CCC(N2Cc3c(CN4CC=C(c5ccsc5)CC4)cccc3C2=S)C(=O)N1 (stereo not shown) [GT-08300, 3-(4-((4-(thiophen-3-yl)-3,6-dihydropyridin-1(2H)-yl)methyl)-1-thioxoisoindolin-2-yl)piperidine-2,6-dione] | 40 to 53 | 60 to 80 | B (80%< substrate protein remaining %≤ 100%) | B (80%< substrate protein remaining %≤ 100%) | A (0% ≤ substrate protein remaining % ≤ 80%) | B (80%< substrate protein remaining %≤ 100%) | B (80%< substrate protein remaining %≤ 100%) | B (80%< substrate protein remaining %≤ 100%) |  |  |  |  |  | 
Cc1ccc(C2=CCN(Cc3cccc4c3CN(C3CCC(=O)NC3=O)C4=S)CC2)s1 (stereo not shown) [GT-08307, 3-(4-((4-(5-methylthiophen-2-yl)-3,6-dihydropyridin-1(2H)-yl)methyl)-1-thioxoisoindolin-2-yl)piperidine-2,6-dione] | 53 to 60 | 80 to 100 |  |  |  |  |  |  | B (80%< substrate protein remaining %≤ 100%) | B (80%< substrate protein remaining %≤ 100%) | B (80%< substrate protein remaining %≤ 100%) | A (0% ≤ substrate protein remaining % ≤ 80%) | B (80%< substrate protein remaining %≤ 100%) | B (80%< substrate protein remaining %≤ 100%)
